Data taken from patent US10696651B2, “Heterocyclic compound” (Takeda Pharmaceutical Company Limited, priority 2016, dated 2020).
Where a name gives a salt, the structure may show the parent alone. Read-outs that look alike come from different tables or passages of the source.

Columns and labels:
[1] = target: T1, human GCN2 full-length protein (Homo sapiens, UniProt Q9P2K8); experiment: GCN2 enzyme inhibition assay (LanthaScreen TR-FRET); format: biochemical; settings: GCN2 enzyme inhibitory activity at compound concentration of 3 μM; for inhibition at 3 µM: read-out: inhibitory rate
T1 construct: purchased Carna Biosciences, Inc
T1 sequence (Q9P2K8 whole entry): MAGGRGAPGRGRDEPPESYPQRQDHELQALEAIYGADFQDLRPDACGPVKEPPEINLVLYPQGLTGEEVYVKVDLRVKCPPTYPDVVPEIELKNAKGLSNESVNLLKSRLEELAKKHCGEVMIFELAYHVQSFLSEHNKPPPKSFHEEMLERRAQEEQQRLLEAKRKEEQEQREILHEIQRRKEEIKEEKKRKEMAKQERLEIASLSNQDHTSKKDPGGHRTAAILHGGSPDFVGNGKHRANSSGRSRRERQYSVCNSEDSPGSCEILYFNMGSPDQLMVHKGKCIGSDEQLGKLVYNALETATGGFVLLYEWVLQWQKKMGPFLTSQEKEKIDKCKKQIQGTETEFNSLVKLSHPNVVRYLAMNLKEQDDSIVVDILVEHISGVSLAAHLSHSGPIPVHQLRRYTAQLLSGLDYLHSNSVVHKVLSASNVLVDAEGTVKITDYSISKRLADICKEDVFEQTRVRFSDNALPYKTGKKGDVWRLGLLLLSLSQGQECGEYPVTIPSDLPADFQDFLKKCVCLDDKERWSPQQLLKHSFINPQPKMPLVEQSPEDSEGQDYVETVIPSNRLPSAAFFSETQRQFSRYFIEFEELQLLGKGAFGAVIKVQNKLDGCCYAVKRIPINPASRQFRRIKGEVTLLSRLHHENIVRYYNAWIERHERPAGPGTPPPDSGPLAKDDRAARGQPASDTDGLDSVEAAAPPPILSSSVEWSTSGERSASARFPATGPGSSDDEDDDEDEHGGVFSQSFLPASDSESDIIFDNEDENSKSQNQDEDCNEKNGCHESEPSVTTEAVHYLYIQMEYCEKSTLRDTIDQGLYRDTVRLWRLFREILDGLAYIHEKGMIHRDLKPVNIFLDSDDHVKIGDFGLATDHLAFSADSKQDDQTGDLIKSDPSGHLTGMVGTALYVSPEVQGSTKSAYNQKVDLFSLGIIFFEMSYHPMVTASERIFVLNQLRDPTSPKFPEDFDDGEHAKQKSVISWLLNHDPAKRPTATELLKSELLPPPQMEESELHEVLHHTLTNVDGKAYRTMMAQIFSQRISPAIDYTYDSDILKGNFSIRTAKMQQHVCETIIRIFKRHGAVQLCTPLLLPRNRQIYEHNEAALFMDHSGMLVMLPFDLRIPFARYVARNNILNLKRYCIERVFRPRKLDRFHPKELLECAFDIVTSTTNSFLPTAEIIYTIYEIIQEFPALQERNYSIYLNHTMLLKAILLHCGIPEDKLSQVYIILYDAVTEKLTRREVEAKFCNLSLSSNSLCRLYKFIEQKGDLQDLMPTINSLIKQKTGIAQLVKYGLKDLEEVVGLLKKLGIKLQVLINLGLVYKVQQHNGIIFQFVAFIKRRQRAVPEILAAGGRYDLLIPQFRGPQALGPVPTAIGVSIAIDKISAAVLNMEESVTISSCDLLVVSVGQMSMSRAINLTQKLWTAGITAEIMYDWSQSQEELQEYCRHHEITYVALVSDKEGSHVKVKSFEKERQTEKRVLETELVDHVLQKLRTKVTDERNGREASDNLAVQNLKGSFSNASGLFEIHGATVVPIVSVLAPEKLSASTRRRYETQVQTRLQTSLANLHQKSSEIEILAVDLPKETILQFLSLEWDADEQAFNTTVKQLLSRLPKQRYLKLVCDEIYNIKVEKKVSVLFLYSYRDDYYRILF
Method: GCN2 enzyme was preserved at -70° C. and used. The GCN2 enzyme inhibitory activity of the test compound was measured by the LanthaScreenTR-FRET (Time Resolved Fluorescence Resonance Energy Transfer) method (manufactured by ThermoFisher). […] Then, GCN2 enzyme solution diluted with the assay buffer was added by 2 μL to each well. The enzyme solution was not added to a part of the wells to give a control group. After incubation at room temperature for 1 hr, 570 μM ATP solution containing 390 nM […] physiological protein substrate (ThermoFisher) was added by 2 μL. After reaction at room temperature for 1 hr, TR-FRET Dilution Buffer (ThermoFisher) containing 4 nM Terbium-labeled anti-elF2alpha [[…]] antibody (ThermoFisher) dissolved therein was added by 2 μL to each well. After standing at room temperature for 1 hr, time decomposition fluorescence measurement was performed on platereader Envision (manufactured by PerkinElmer).

[2] = test system: osteosarcoma cell line U-2-OS; experiment: In vitro cell proliferation inhibition assay (CellTiter-Glo, low amino acid media); format: cell-based; settings: McCoy's 5A low amino acid media; for inhibition at 0.1 µM: Homo sapiens, U2OS, 72 h, cell proliferation inhibitory rate; for inhibitory rate: 72 hr
Method: A cell suspension (40 μL) (1000 cells/well) of osteosarcoma cell line U-2-OS obtained from ATCC (American Type Culture Collection) was seeded on a 384 plate using McCoy's 5A low amino acid media (amino acid content 25%). The seeded cells were incubated (37° C., 5% CO2) overnight to 24 hr at the longest. Each example compound was dissolved (10 mM) in DMSO, delivered to wells by using TECAN HP D300 (TECAN), and the plate was incubated for 72 hr (37° C., 5% CO2). A well without addition of compound was treated similarly as a control group. Celltiter-Glo (registered trade mark) Luminescent Cell Viability Assay reagent (Promega KK) equilibrated at room temperature was added (40 μL/well) to cells in each well before compound treatment (untreated group) and 72 hours after compound treatment. After incubation for 10 min, cell proliferation inhibitory rate was measured by the amount of ATP which is a cell viability marker. Luminescence of cells showing ATP amount was measured using ARVO MX (PerkinElmer). Based on the luminescence values of the untreatment group, the control group without addition of Example compound solution, and the treatment group with addition of Example compound, the cell proliferation inhibitory rate (%) of the test compound at a compound concentration of 100 nM was calculated by the following formula and the results thereof are shown in Tables 4-1, 4-2. Inhibitory rate (%)=(1−(luminescence value of treatment group−luminescence value of untreatment group)÷(luminescence value of control group−luminescence value of untreatment group))×100

Structure (SMILES)	inhibition at 3 µM ([1]; Table 3-2)	inhibition at 3 µM ([1]; Table 3-1)	inhibition at 0.1 µM ([2]; Table 4-2)	also measured
Cc1ccc(Cl)cc1S(=O)(=O)Nc1ccc(F)c(C#Cc2cnc(N)c(C)n2)c1F [Example 31, N-(3-((5-amino-6-methylpyrazin-2-yl)ethynyl)-2,4-difluorophenyl)-5-chloro-2-methylbenzenesulfonamide]		99%		inhibition at 0.1 µM ([2]; Table 4-1): 53%
C[C@H](CO)Nc1ncc(C#Cc2c(F)ccc(NS(=O)(=O)c3cc(Cl)cc4c3OCC4O)c2F)cn1 (stereo partly drawn) [Example 187, 5-chloro-N-(2,4-difluoro-3-((2-(((2R)-1-hydroxypropan-2-yl)amino)pyrimidin-5-yl)ethynyl)phenyl)-3-hydroxy-2,3-dihydro-1-benzofuran-7-sulfonamide]				inhibitory rate ([2]; Table 4-2): 64%
Nc1ncc(C#Cc2c(F)ccc(NS(=O)(=O)c3cc(Cl)cc4c3OCC4O)c2F)cn1 (centres unmarked) [Example 159, N-(3-((2-aminopyrimidin-5-yl)ethynyl)-2,4-difluorophenyl)-5-chloro-3-hydroxy-2,3-dihydro-1-benzofuran-7-sulfonamide]	99%		60%	
O=S(=O)(Nc1ccc(F)c(C#Cc2cnc3[nH]ncc3c2)c1F)c1c(Cl)c(Cl)cc(Cl)c1Cl [Example 23, 2,3,5,6-tetrachloro-N-(2,4-difluoro-3-(1H-pyrazolo[3,4-b]pyridin-5-ylethynyl)phenyl)benzenesulfonamide]		100%		inhibition at 0.1 µM ([2]; Table 4-1): 72%
O=S(=O)(Nc1ccc(F)c(C#Cc2cnc3[nH]ncc3c2)c1F)c1cc(Cl)cc(Cl)c1 [Example 25, 3,5-dichloro-N-(2,4-difluoro-3-(1H-pyrazolo[3,4-b]pyridin-5-ylethynyl)phenyl)benzenesulfonamide]		99%		inhibition at 0.1 µM ([2]; Table 4-1): 44%
O=S(=O)(Nc1ccc(F)c(C#Cc2cnc(N[C@H]3CC[C@H](O)CC3)nc2)c1F)c1cc(Cl)cc2c1OCC2O (stereo partly drawn) [Example 191, 5-chloro-N-(2,4-difluoro-3-((2-((trans-4-hydroxycyclohexyl)amino)pyrimidin-5-yl)ethynyl)phenyl)-3-hydroxy-2,3-dihydro-1-benzofuran-7-sulfonamide]				inhibitory rate ([1]; Table 3-2, 3 µM): 99%; inhibitory rate ([2]; Table 4-2): 74%
Nc1ncc(C#Cc2c(F)ccc(NS(=O)(=O)c3cc(Cl)cc4ccoc34)c2F)cn1 [Example 173, N-(3-((2-aminopyrimidin-5-yl)ethynyl)-2,4-difluorophenyl)-5-chloro-1-benzofuran-7-sulfonamide]	99%		76%	
Cn1ncc2c(S(=O)(=O)Nc3ccc(F)c(C#Cc4cnc(N)nc4)c3F)cc(Cl)cc21 [Example 192, N-(3-((2-aminopyrimidin-5-yl)ethynyl)-2,4-difluorophenyl)-6-chloro-1-methyl-1H-indazole-4-sulfonamide]			43%	
COc1c(CO)cc(Cl)cc1S(=O)(=O)Nc1ccc(F)c(C#Cc2cnc(NCC3(O)CC3)nc2)c1F [Example 154, 5-chloro-N-(2,4-difluoro-3-((2-(((1-hydroxycyclopropyl)methyl)amino)pyrimidin-5-yl)ethynyl)phenyl)-3-(hydroxymethyl)-2-methoxybenzenesulfonamide]			70%	
Nc1ncc(C#Cc2c(F)ccc(NS(=O)(=O)c3cc(Cl)ccc3Cl)c2F)cn1 [Example 13, N-(3-((2-aminopyrimidin-5-yl)ethynyl)-2,4-difluorophenyl)-2,5-dichlorobenzenesulfonamide TFA Salt]				inhibition at 0.1 µM ([2]; Table 4-1): 70%
COc1ncc(Cl)cc1S(=O)(=O)Nc1ccc(Cl)c(C#Cc2cnc(N)nc2)c1F [Example 124, N-(3-((2-aminopyrimidin-5-yl)ethynyl)-4-chloro-2-fluorophenyl)-5-chloro-2-methoxypyridine-3-sulfonamide]		100%		
COc1ncc(Cl)cc1S(=O)(=O)Nc1cccc(C#Cc2cnc(N)nc2)c1Cl [Example 126, N-(3-((2-aminopyrimidin-5-yl)ethynyl)-2-chlorophenyl)-5-chloro-2-methoxypyridine-3-sulfonamide]		100%		
COc1ncc(Cl)cc1S(=O)(=O)Nc1ccc(F)c(C#Cc2cnc(N)nc2)c1Cl [Example 125, N-(3-((2-aminopyrimidin-5-yl)ethynyl)-2-chloro-4-fluorophenyl)-5-chloro-2-methoxypyridine-3-sulfonamide]		100%		
Cc1cc(C)cc(S(=O)(=O)Nc2ccc(F)c(C#Cc3cnc4[nH]ncc4c3)c2F)c1 [Example 111, N-(2,4-difluoro-3-(1H-pyrazolo[3,4-b]pyridin-5-ylethynyl)phenyl)-3,5-dimethylbenzenesulfonamide TFA Salt]		97%		

Second part, led by results:

inhibition at 3 µM ([1]; Table 3-2)	inhibition at 3 µM ([1]; Table 3-1)	Structure (SMILES)	inhibition at 0.1 µM ([2]; Table 4-2)	also measured
99%		COc1c(CO)cc(Cl)cc1S(=O)(=O)Nc1ccc(F)c(C#Cc2cnc(NC3CC3)nc2)c1F [Example 138, 5-chloro-N-(3-((2-(cyclopropylamino)pyrimidin-5-yl)ethynyl)-2,4-difluorophenyl)-3-(hydroxymethyl)-2-methoxybenzenesulfonamide]	87%	
99%		COc1c(CO)cc(Cl)cc1S(=O)(=O)Nc1ccc(F)c(C#Cc2cnc(NC3CC3)nn2)c1F [Example 168, 5-chloro-N-(3-((3-(cyclopropylamino)-1,2,4-triazin-6-yl)ethynyl)-2,4-difluorophenyl)-3-(hydroxymethyl)-2-methoxybenzenesulfonamide]	57%	
98%		Cc1ncc(Cl)cc1S(=O)(=O)Nc1ccc(F)c(C#Cc2cnc(N[C@@H](C)CO)nc2)c1F [Example 193, 5-chloro-N-(2,4-difluoro-3-((2-(((2S)-1-hydroxypropan-2-yl)amino)pyrimidin-5-yl)ethynyl)phenyl)-2-methylpyridine-3-sulfonamide]	64%	
99%		COc1ncc(Cl)cc1S(=O)(=O)Nc1ccc(F)c(C#Cc2cnc(N[C@H](C)CO)nc2)c1F [Example 175, 5-chloro-N-(2,4-difluoro-3-((2-(((2R)-1-hydroxypropan-2-yl)amino)pyrimidin-5-yl)ethynyl)phenyl)-2-methoxypyridine-3-sulfonamide]	75%	
99%		COc1c(CO)cc(Cl)cc1S(=O)(=O)Nc1ccc(F)c(C#Cc2cnc(N)nc2)c1F [Example 129, N-(3-((2-aminopyrimidin-5-yl)ethynyl)-2,4-difluorophenyl)-5-chloro-3-(hydroxymethyl)-2-methoxybenzenesulfonamide]	70%	
102%		CNc1ncc(Cl)cc1S(=O)(=O)Nc1ccc(F)c(C#Cc2cnc(N[C@H]3CC[C@H](O)CC3)nc2)c1F [Example 182, 5-chloro-N-(2,4-difluoro-3-((2-((trans-4-hydroxycyclohexyl)amino)pyrimidin-5-yl)ethynyl)phenyl)-2-(methylamino)pyridine-3-sulfonamide]	71%	
99%		CCNc1ncc(C#Cc2c(F)ccc(NS(=O)(=O)c3cc(Cl)cc(CO)c3OC)c2F)cn1 [Example 137, 5-chloro-N-(3-((2-(ethylamino)pyrimidin-5-yl)ethynyl)-2,4-difluorophenyl)-3-(hydroxymethyl)-2-methoxybenzenesulfonamide]	75%	
100%		O=S(=O)(Nc1ccc(F)c(C#Cc2cnc(N[C@H]3CC[C@H](O)CC3)nc2)c1F)c1cc(Cl)cc2c1OCC2O (stereo partly drawn) [Example 185, 5-chloro-N-(2,4-difluoro-3-((2-((trans-4-hydroxycyclohexyl)amino)pyrimidin-5-yl)ethynyl)phenyl)-3-hydroxy-2,3-dihydro-1-benzofuran-7-sulfonamide]	56%	
99%		COc1c(CO)cc(Cl)cc1S(=O)(=O)Nc1ccc(F)c(C#Cc2cnc(N)c(C)n2)c1F [Example 131, N-(3-((5-amino-6-methylpyrazin-2-yl)ethynyl)-2,4-difluorophenyl)-5-chloro-3-(hydroxymethyl)-2-methoxybenzenesulfonamide]		
	99%	C[C@H](CO)Nc1ncc(C#Cc2c(F)ccc(NS(=O)(=O)c3cc(Cl)ccc3Cl)c2F)cn1 [Example 22, 2,5-dichloro-N-(2,4-difluoro-3-((2-(((2R)-1-hydroxypropan-2-yl)amino)pyrimidin-5-yl)ethynyl)phenyl)benzenesulfonamide TFA Salt]		
